What was measured:
[1] = system: murine model of acquired epilepsy triggered by de novo status epilepticus; assay: Effect of reparixin on onset and development of epilepsy (intra-amygdala kainic acid status epilepticus, EEG recording); assay type: in vivo, C57BL6/N male mice
Protocol: A murine model of acquired epilepsy triggered by de novo status epilepticus was used in the experiments (lori et al, Neurobiol Dis 2017, 99 12-23).
In details, eight week-old C57BL6/N male mice (˜25 g; Charles River, calco, Italy) were used. Mice were maintained in SPF facilities and housed at a constant room temperature (23° c) and relative humidity (60±5%) with free access to food and water and a fixed 12 h light/dark cycle. All experimental procedures were conducted in conformity with institutional guidelines that are in compliance with national (D.L. n.26, G.U. Mar. 4, 2014) and international laws and policies (EEC council directive 86/609, OJ L 358, 1, Dec. 12, 1987, guide for the care and use of laboratory animals, U.S. national research council, 1996), and were reviewed and approved by the intramural ethical committee.
Mice were surgically implanted under general gas anaesthesia (1-3% isoflurane in O2) and stereotaxic guidance. A 23-gauge guide cannula was unilaterally positioned on top of the dura mater for the intra-amygdala injection of kainic acid (KA) (from bregma, mm: nose bar 0; anteroposterior, −0.9; lateral, −3.1) in accordance with lori et al. (2017).
For seizure recording, a nichrome-insulated bipolar depth electrode (60 μm OD) was implanted in the dorsal hippocampus (from bregma, mm: nose bar 0; anteroposterior—1.8, lateral 1.4 and 1.8 below dura mater) contralateral to the injected amygdala and a cortical electrode was placed onto the somatosensory cortex in the ipsilateral hemisphere. Finally, two screw electrodes were positioned over the nasal sinus and the cerebellum, and used as ground and reference electrodes, respectively. Electrodes were connected to a multipin socket and secured to the skull by acrylic dental cement.
Minipumps (Alzet pump 1007D, 100 μ/minipump or Alzet pump 2002, 200 μ/minipump; Charles River, Calco, Italy) filled with reparixin dissolved in a vehicle consisting in sterile saline (NaCl 0.9%) solution (vehicle) (reparixin group) or vehicle (sham control group and vehicle group) were implanted subcutaneously in the back of the mice. Briefly, a small incision was made in the skin between the scapulae and a pocket was formed by spreading apart the connective tissues. After minipump positioning, the skin was carefully sutured to avoid any discomfort to the animal.
One week after surgery, mice were connected to the EEG set up (TWIN EEG recording system connected with a comet AS-40 32/8 amplifier:sampling rate 400 hz, high-pass filter 0.3 hz, low-pass filter 70 hz, sensitivity 2000 my/cm; Grass-telefactor, West Warwick, USA) in order to record an EEG baseline before the induction of status epilepticus (SE). […]
Reparixin, at the dose of 7.5 mg/h/kg (reparixin group), or vehicle (sham and vehicle group) were administered by continuous infusion using osmotic minipumps as described in example 1b).
After 24 hours from infusion, status epilepticus was induced in the vehicle group and reparixin group by amygdal injection of kaininc acid.
In details, kainic acid (KA, 0.3 μg in 0.2 μl; Sigma-Aldrich, S. Louis, USA) was dissolved in […] phosphate-buffered saline (PBS, pH 7.4) and injected into the right basolateral amygdala in freely moving mice using a needle protruding 4.1 mm below the implanted cannula in order to evoke SE. SE was defined by the appearance of continuous spike activity with a frequency>1 Hz intermixed with high amplitude and frequency discharges lasting for at least 5 s, with a frequency of >8 Hz. […]

[2] = system: acetylated alpha-tubulin; assay: Acetylated alpha-tubulin immunostaining in hippocampus after SE; assay type: in vivo, C57BL6/N male mice; conditions: as assessed 48 h and 72 h after SE; 7.5 mg/h/kg minipump; reparixin n=7, vehicle n=4
Protocol: (§1) A cohort of animals was prepared in accordance to Example 1 to study the effects of reparixin on the acetylated alpha-tubulin, a pharmacodynamic marker of drug's neuroprotective effect, and on degenerating neurons, as identified by Fluoro-Jade staining.
(§2) vehicle group (n=6) and reparixin group (n=7). Sham mice (implanted with electrodes but not exposed to SE) were used as controls (n=6).
(§3) The animals of the different groups were treated as described in Example 2.
[…] Brains were post-fixed for 90 min in 4% PFA in PBS at 4° C., then transferred to 20% sucrose in PBS overnight at 4° C. and then frozen in n-pentane for 3 min at −43° C. and stored at −80° C. until assay. Serial coronal sections (40 μm) were cut on a cryostat throughout the extension of the hippocampus (from bregma −1.22 to −2.54 mm).
(§4) Sections were processed to measure both degenerating neurons with Fluoro-Jade and acetylated alpha-tubulin (marker of microtubule stability) as described below. Three slices for each animal's brain in each experimental group/marker were matched for anteroposterior level and processed.
Slices were blocked for 30 min at 4° C. in blocking buffer (0.1% Triton-X100, 3% BSA in PBS; Invitrogen) then incubated with primary antibody against acetylated alpha-tubuline 1:2000 (#24610 Abcam) overnight at 4 C. […]

[3] = system: Fluoro-Jade-positive degenerating neurons; assay: Fluoro-Jade staining of degenerating neurons in hippocampus after SE; assay type: in vivo, C57BL6/N male mice; conditions: 72 h post-SE
Protocol: as §1, §2, §3
All mice were transcardially perfused 72 h post-SE with ice-cold phosphate buffered saline (PBS, pH 7.4), followed by 4% paraformaldehyde (PFA) in PBS. Brains were post-fixed for 90 min in 4% PFA in PBS at 4° C., then transferred to 20% sucrose in PBS overnight at 4° C. and then frozen in n-pentane for 3 min at −43° C. and stored at −80° C. until assay. Serial coronal sections (40 μm) were cut on a cryostat throughout the extension of the hippocampus (from bregma −1.22 to −2.54 mm).
as §4
Labeling was carried out as previously described (Ravizza et al., 2008). Briefly, sections were dried in ethanol (100%, 75% and 50%) and rehydrated in distilled water. […]

[4] = system: chronic epileptic mice with established spontaneous seizures; assay: Effect of reparixin on established seizures in chronic epileptic mice; assay type: in vivo
Protocol: The objective of this experiment was to assess whether reparixin affects seizure frequency or duration in chronic epileptic mice with established spontaneous seizures. Status epilepticus was induced in 18 mice prepared as described in Example 1a) by amygdala injection of kainic acid and EEG was recorded for 14 days to determine disease onset as described in Example 2. Then, mice were disconnected from EEG and returned to their home cages until day 45 at which time they were again EEG recorded for 14 days to determine their individual baseline of spontaneous seizures. At the end of this period, mice were temporarly disconnected for minipumps implantation. Minipumps (ALZET model 2002; 0.5 μl/h) were filled with Reparixin (7.5/mg/h/kg, n=9) or its vehicle (n=9) according to the manifacturer's instructions and implanted subcutaneously in the back of the mice under general gas anaesthesia (1-3% isoflurane in O2). Upon awakening from anesthesia, mice were returned to their home cages for monitoring the EEG for additional 14 days during treatment. At the end of treatment period (as determined by minipump exhaustion) venous blood was collected from the cheek and plasma was isolated for drug level measurement. Mice were subsequently monitored during a drug wash-out period of 14 days. A group of sham mice (not exposed to SE but handled as experimental mice) were implanted with minipumps filled with vehicle (n=6).

Q: Which results are given for `CC(C)Cc1ccc([C@@H](C)C(=O)NS(C)(=O)=O)cc1` [reparixin, R-(-)-2-(4-isobutylphenyl)propionyl methansulfonamide]?
A: onset time of SE ([1]; 7.5 mg/h/kg continuous s.c. minipump infusion started 24 h before kainic acid, vs vehicle group, n=24/group): did not modify; onset of spontaneous seizures (epilepsy onset, Kaplan-Meyer curve) ([1]; 7.5 mg/h/kg minipump for 7 days post-SE, p<0.05 Log-rank test vs vehicle): significant delay; incidence of acute symptomatic seizures during 48 h post-SE ([1]; 7.5 mg/h/kg minipump, all animals exposed to SE, p<0.05 by Fisher's test vs vehicle (62% of mice)): 20 % of mice; number of spontaneous recurrent seizures (SRS) during drug treatment ([1]; 48 h-7 d post-SE, vs vehicle group, p<0.05 Mann-Whitney test): significant reduction; mice that died during epilepsy development ([1]; reparixin group n=9, vehicle group 3 out of 12 died because of severe seizures): 1 out of 9; immunohistochemical signal of acetylated alpha-tubulin in the mouse hippocampus [2]: significantly reduced; mice without Fluoro-Jade positive neurons in CA4 ([3]; vehicle 1 out of 5 without neurodegeneration, p=0.29 by Fisher test): 4 out of 7; mice without Fluoro-Jade positive neurons in CA1 pyramidal cell layer ([3]; vehicle 5 out of 5 showed neurodegeneration, p<0.05 by Fisher test): 5 out of 7; average SRS duration ([4]; 7.5 mg/h/kg s.c. minipump for 14 days, n=9): not modified; reduction of the number of spontaneous seizures compared to pre-injection baseline ([4]; 7.5 mg/h/kg s.c. minipump for 14 days, n=9, p<0.05 one-way ANOVA, Tukey's test): about 50%; responders (at least 30% seizure reduction during treatment vs pre-treatment baseline) ([4]; 7.5 mg/h/kg s.c. minipump for 14 days, waterfall plot): 7 out of 9; number of seizures upon drug discontinuation ([4]; drug wash-out period of 14 days): returned to pre-injection baseline level
